The values that follow come from patent US20110281896A1, “OPTICALLY PURE QUINAZOLINE COMPOUNDS” (Jiangsu Hansoh Pharmaceutical Co. Ltd, priority 2009, published 2011).

One test relates to A431. The test is described as follows: Antitumor activity in vitro, SRB cell proliferation inhibition. Format: cell-based. Particulars: 72 h incubation, Logit method. The method, then: (§1) Evaluation of Antitumor Activity In Vitro
(§2) Cell Strains: A431; MCF-7
(§3) Experiment Design: Cells were incubated with different concentrations of compounds for 72 hours. The inhibition of cell proliferation by the compounds was evaluated by SRB, followed by calculation of the inhibition rate. Then, value of IC50 was calculated by using-Logit method base on the inhibition rate and used to compare in vitro antitumor activity of the compounds.
(§4) Method for Calculating the Inhibition Rate: Inhibition rate (%)=(OD value of control group−OD value of drug group)/OD value of control group×100%

A further test concerns MCF-7. Described as above. Particulars: 72 h incubation, Logit method. It counts as cell-based. How it is done: as §1, §2, §3, §4
[1] abbreviates: Homo sapiens, A-431, A431 cells.
Where [2] appears, read: Homo sapiens, MCF7, MCF-7 cells.

As to `CON[C@H](CS(C)(=O)=O)c1ccc(-c2ccc3ncnc(Nc4ccc(OCc5cccc(F)c5)c(Cl)c4)c3c2)o1` [Compound 103], the IC50 (commonly the concentration that gives 50% inhibition) in the test on A431 (A431 cells) is 479 nM; with MCF-7 (MCF-7 cells), 8820 nM.

As to `CON(C)[C@H](CS(C)(=O)=O)c1ccc(-c2ccc3ncnc(Nc4ccc(OCc5cccc(F)c5)c(Cl)c4)c3c2)o1` [Compound 104], the IC50 came to 632 nM in the test with A431 (A431 cells) and 9000 nM in the test on MCF-7 (MCF-7 cells).

Turning to `CS(=O)(=O)C[C@H](N)c1ccc(-c2ccc3ncnc(Nc4ccc(OCc5cccc(F)c5)c(Cl)c4)c3c2)o1` [Compound 105, (R)—N-(4-(3-fluorobenzyl-oxy)-3-chlorophenyl)-6-(5-(1-(amino)-2-(methylsulfonyl)ethyl)furan-2-yl)quinazolin-4-amine], the values for the IC50 with A431 (setting [1]) and with MCF-7 (setting [2]) were 664 nM and 7860 nM, respectively.

For the compound `CN[C@@H](CS(C)(=O)=O)c1ccc(-c2ccc3ncnc(Nc4ccc(OCc5cccc(F)c5)c(Cl)c4)c3c2)o1` [Compound 106, (R)—N-(4-(3-fluorobenzyl-oxy)-3-chlorophenyl)-6-(5-(1-(methylamino)-2-(methylsulfonyl)ethyl)furan-2-yl)quinazolin-4-amine], the results for the IC50 in the test with A431 (setting [1]) and in the test on MCF-7 (setting [2]) were 469 nM and 7800 nM, respectively.

Consider `CCN[C@@H](CS(C)(=O)=O)c1ccc(-c2ccc3ncnc(Nc4ccc(OCc5cccc(F)c5)c(Cl)c4)c3c2)o1` [Compound 107, (R)—N-(4-(3-fluorobenzyl-oxy)-3-chlorophenyl)-6-(5-(1-(ethylamino)-2-(methylsulfonyl)ethyl)furan-2-yl)quinazolin-4-amine], for which the IC50 with A431 (setting [1]) was determined as 578 nM; in the test on MCF-7 (setting [2]), 6770 nM.

On to `CCCN[C@@H](CS(C)(=O)=O)c1ccc(-c2ccc3ncnc(Nc4ccc(OCc5cccc(F)c5)c(Cl)c4)c3c2)o1` [Compound 108, (R)—N-(4-(3-fluorobenzyl-oxy)-3-chlorophenyl)-6-(5-(1-(propylamino)-2-(methylsulfonyl)ethyl)furan-2-yl)quinazolin-4-amine], for which the 50% inhibitory concentration (IC50) in the test on A431 (setting [1]) worked out at 529 nM; with MCF-7 (setting [2]), 5900 nM.

Consider `CS(=O)(=O)C[C@H](NCC1CC1)c1ccc(-c2ccc3ncnc(Nc4ccc(OCc5cccc(F)c5)c(Cl)c4)c3c2)o1` [Compound 109, (R)—N-(4-(3-fluorobenzyl-oxy)-3-chlorophenyl)-6-(5-(1-(cyclopropylmethyl-amino)-2-(methylsulfonyl)ethyl)furan-2-yl)quinazolin-4-amine], for which the IC50 in the test on A431 (setting [1]) is 756 nM; in the test on MCF-7 (setting [2]), 6210 nM.

Regarding `CCN(CC)[C@@H](CS(C)(=O)=O)c1ccc(-c2ccc3ncnc(Nc4ccc(OCc5cccc(F)c5)c(Cl)c4)c3c2)o1` [Compound 111, (R)—N-(4-(3-fluorobenzyl-oxy)-3-chlorophenyl)-6-(5-(1-(N,N-diethyl-amino)-2-(methylsulfonyl)ethyl)furan-2-yl)quinazolin-4-amine], the IC50 is 699 nM in the test with A431 (setting [1]) and 6820 nM in the test with MCF-7 (setting [2]).

As for `CCCN(CCC)[C@@H](CS(C)(=O)=O)c1ccc(-c2ccc3ncnc(Nc4ccc(OCc5cccc(F)c5)c(Cl)c4)c3c2)o1` [Compound 112, (R)—N-(4-(3-fluorobenzyl-oxy)-3-chlorophenyl)-6-(5-(1-(N,N-dipropyl-amino)-2-(methylsulfonyl)ethyl)furan-2-yl)quinazolin-4-amine], the figures for the IC50 in the test on A431 (setting [1]) and with MCF-7 (setting [2]) were 855 nM and 6220 nM, respectively.

Consider `CCN(C)[C@@H](CS(C)(=O)=O)c1ccc(-c2ccc3ncnc(Nc4ccc(OCc5cccc(F)c5)c(Cl)c4)c3c2)o1` [Compound 113, (R)—N-(4-(3-fluorobenzyloxy)-3-chlorophenyl)-6-(5-(1-(N-methyl, N-ethyl-amino)-2-(methylsulfonyl)ethyl)furan-2-yl)quinazolin-4-amine], for which the 50% inhibitory concentration (IC50) with A431 (setting [1]) was 758 nM; in the test on MCF-7 (setting [2]), 7070 nM.

`C=CCN[C@@H](CS(C)(=O)=O)c1ccc(-c2ccc3ncnc(Nc4ccc(OCc5cccc(F)c5)c(Cl)c4)c3c2)o1` [Compound 114, (R)—N-(4-(3-fluorobenzyl-oxy)-3-chlorophenyl)-6-(5-(1-(allyl-amino)-2-(methylsulfonyl)ethyl)furan-2-yl)quinazolin-4-amine]: the figures for the IC50 in the test on A431 (setting [1]) and in the test with MCF-7 (setting [2]) were 489 nM and 7900 nM, respectively.

`C#CCN[C@@H](CS(C)(=O)=O)c1ccc(-c2ccc3ncnc(Nc4ccc(OCc5cccc(F)c5)c(Cl)c4)c3c2)o1` [Compound 115, (R)—N-(4-(3-fluorobenzyl-oxy)-3-chlorophenyl)-6-(5-(1-(propargyl-amino)-2-(methylsulfonyl)ethyl)furan-2-yl)quinazolin-4-amine]: the IC50 was found to be 536 nM in the test with A431 (setting [1]) and 7580 nM in the test on MCF-7 (setting [2]).

`CON[C@@H](CS(C)(=O)=O)c1ccc(-c2ccc3ncnc(Nc4ccc(OCc5cccc(F)c5)c(Cl)c4)c3c2)o1` [Compound 116]: the figures for the IC50 in the test on A431 (A431 cells) and with MCF-7 (MCF-7 cells) were 441 nM and 4800 nM, respectively.

As for `CON(C)[C@@H](CS(C)(=O)=O)c1ccc(-c2ccc3ncnc(Nc4ccc(OCc5cccc(F)c5)c(Cl)c4)c3c2)o1` [Compound 117], the IC50 stood at 636 nM in the test with A431 (A431 cells) and 7630 nM in the test on MCF-7 (MCF-7 cells).

In the case of `CS(=O)(=O)C[C@H](N)c1cnc(-c2ccc3ncnc(Nc4ccc(OCc5cccc(F)c5)c(Cl)c4)c3c2)s1` [Compound 118, (S)—N-(4-(3-fluorobenzyl-oxy)-3-chlorophenyl)-6-(5-(1-(amino)-2-(methylsulfonyl)ethyl)thiazole-2-yl)quinazolin-4-amine], the IC50 with A431 (setting [1]) is 525 nM; with MCF-7 (setting [2]) it was 6690 nM.

With `CN[C@@H](CS(C)(=O)=O)c1cnc(-c2ccc3ncnc(Nc4ccc(OCc5cccc(F)c5)c(Cl)c4)c3c2)s1` [Compound 119], the figures for the IC50 in the test on A431 (A431 cells) and in the test with MCF-7 (MCF-7 cells) were 588 nM and 6120 nM, respectively.

As for `CCN[C@@H](CS(C)(=O)=O)c1cnc(-c2ccc3ncnc(Nc4ccc(OCc5cccc(F)c5)c(Cl)c4)c3c2)s1` [Compound 120], the concentration for half-maximal inhibition (IC50) in the test with A431 (A431 cells) turned out to be 658 nM; in the test on MCF-7 (MCF-7 cells) it was 7560 nM.

Regarding `CCCN[C@@H](CS(C)(=O)=O)c1cnc(-c2ccc3ncnc(Nc4ccc(OCc5cccc(F)c5)c(Cl)c4)c3c2)s1` [Compound 121], the IC50 with A431 (A431 cells) stood at 465 nM; in the test on MCF-7 (MCF-7 cells), 6390 nM.

As to `CN(C)[C@@H](CS(C)(=O)=O)c1cnc(-c2ccc3ncnc(Nc4ccc(OCc5cccc(F)c5)c(Cl)c4)c3c2)s1` [Compound 123], the IC50 was 499 nM in the test with A431 (A431 cells) and 6330 nM in the test on MCF-7 (MCF-7 cells).

As to `CCN(CC)[C@@H](CS(C)(=O)=O)c1cnc(-c2ccc3ncnc(Nc4ccc(OCc5cccc(F)c5)c(Cl)c4)c3c2)s1` [Compound 124], the IC50 in the test with A431 (A431 cells) came out at 685 nM; in the test with MCF-7 (MCF-7 cells), 7980 nM.

As for `CCCN(CCC)[C@@H](CS(C)(=O)=O)c1cnc(-c2ccc3ncnc(Nc4ccc(OCc5cccc(F)c5)c(Cl)c4)c3c2)s1` [Compound 125], the IC50 is 523 nM in the test on A431 (A431 cells) and 7760 nM with MCF-7 (MCF-7 cells).

With `CCN(C)[C@@H](CS(C)(=O)=O)c1cnc(-c2ccc3ncnc(Nc4ccc(OCc5cccc(F)c5)c(Cl)c4)c3c2)s1` [Compound 126], the IC50 in the test with A431 (A431 cells) turned out to be 488 nM; with MCF-7 (MCF-7 cells) it was 7760 nM.

In the case of `C=CCN[C@@H](CS(C)(=O)=O)c1cnc(-c2ccc3ncnc(Nc4ccc(OCc5cccc(F)c5)c(Cl)c4)c3c2)s1` [Compound 127], the IC50 in the test with A431 (A431 cells) came to 521 nM; in the test on MCF-7 (MCF-7 cells), 5890 nM.

`C#CCN[C@@H](CS(C)(=O)=O)c1cnc(-c2ccc3ncnc(Nc4ccc(OCc5cccc(F)c5)c(Cl)c4)c3c2)s1` [Compound 128]: the IC50 is 672 nM in the test with A431 (A431 cells) and 6340 nM with MCF-7 (MCF-7 cells).

As to `CON[C@@H](CS(C)(=O)=O)c1cnc(-c2ccc3ncnc(Nc4ccc(OCc5cccc(F)c5)c(Cl)c4)c3c2)s1` [Compound 129], the IC50 worked out at 667 nM in the test with A431 (A431 cells) and 9710 nM in the test on MCF-7 (MCF-7 cells).

As to `CON(C)[C@@H](CS(C)(=O)=O)c1cnc(-c2ccc3ncnc(Nc4ccc(OCc5cccc(F)c5)c(Cl)c4)c3c2)s1` [Compound 130], the IC50 in the test with A431 (A431 cells) is 536 nM; in the test with MCF-7 (MCF-7 cells), 8590 nM.

On to `CS(=O)(=O)C[C@@H](N)c1cnc(-c2ccc3ncnc(Nc4ccc(OCc5cccc(F)c5)c(Cl)c4)c3c2)s1` [Compound 131, (R)—N-(4-(3-fluorobenzyl-oxy)-3-chlorophenyl)-6-(5-(1-(amino)-2-(methylsulfonyl)ethyl)thiazole-2-yl)quinazolin-4-amine], for which the IC50 with A431 (setting [1]) worked out at 582 nM; in the test with MCF-7 (setting [2]), 8520 nM.

Consider `CN[C@H](CS(C)(=O)=O)c1cnc(-c2ccc3ncnc(Nc4ccc(OCc5cccc(F)c5)c(Cl)c4)c3c2)s1` [Compound 132], for which the IC50 came to 389 nM in the test on A431 (A431 cells) and 9910 nM in the test on MCF-7 (MCF-7 cells).

Take `CCN[C@H](CS(C)(=O)=O)c1cnc(-c2ccc3ncnc(Nc4ccc(OCc5cccc(F)c5)c(Cl)c4)c3c2)s1` [Compound 133]: the IC50 in the test on A431 (A431 cells) turned out to be 554 nM; with MCF-7 (MCF-7 cells) it was 7890 nM.

Consider `CCCN[C@H](CS(C)(=O)=O)c1cnc(-c2ccc3ncnc(Nc4ccc(OCc5cccc(F)c5)c(Cl)c4)c3c2)s1` [Compound 134], for which the values for the IC50 in the test on A431 (A431 cells) and with MCF-7 (MCF-7 cells) were 580 nM and 6510 nM, respectively.

For `CN(C)[C@H](CS(C)(=O)=O)c1cnc(-c2ccc3ncnc(Nc4ccc(OCc5cccc(F)c5)c(Cl)c4)c3c2)s1` [Compound 136], the IC50 amounted to 449 nM in the test with A431 (A431 cells) and 5430 nM in the test on MCF-7 (MCF-7 cells).

Take `CCN(CC)[C@H](CS(C)(=O)=O)c1cnc(-c2ccc3ncnc(Nc4ccc(OCc5cccc(F)c5)c(Cl)c4)c3c2)s1` [Compound 137]: the IC50 worked out at 589 nM in the test on A431 (A431 cells) and 5470 nM in the test on MCF-7 (MCF-7 cells).

`CCCN(CCC)[C@H](CS(C)(=O)=O)c1cnc(-c2ccc3ncnc(Nc4ccc(OCc5cccc(F)c5)c(Cl)c4)c3c2)s1` [Compound 138]: the IC50 with A431 (A431 cells) was determined as 426 nM; in the test with MCF-7 (MCF-7 cells) it was 4600 nM.

Regarding `CCN(C)[C@H](CS(C)(=O)=O)c1cnc(-c2ccc3ncnc(Nc4ccc(OCc5cccc(F)c5)c(Cl)c4)c3c2)s1` [Compound 139], the IC50 was found to be 452 nM in the test with A431 (A431 cells) and 4130 nM in the test with MCF-7 (MCF-7 cells).
